This is an account of results in article PMC4069108 (PLoS ONE, 2014).

The target of test [1] is T1, recombinant human MT1 receptor purified from Pichia pastoris (MT1 purified) (Homo sapiens, UniProt P48039).
T1 construct: gene MTNR1A; alpha-factor signal, Flag and 10-His tags
The experiment in a line: [3H]-melatonin competition, PEG precipitation and filtration. The note with it: for MT1 purified / pKi ± SEM: purified in […] Fos14/[…] CHAPS; […] [3H]-melatonin, […] CHAPS/[…] CHS, pH […] MgCl2, […] °C, […] h. The test is classed as binding. From the text:
[3H]-melatonin competition, PEG precipitation and filtration on recombinant human MT1 receptor purified from Pichia pastoris (MT1 purified)

Test [2] concerns the target T2, human melatonin MT1 receptor (MT1 CHO membranes) (Homo sapiens, UniProt P48039).
T2 construct: gene MTNR1A; receptor cDNA in pcDNA3.1, no tag mentioned; crude membranes
In words: [3H]-melatonin competition, filtration. In kind it is binding. As to conditions: for MT1 CHO membranes / pKi ± SEM: CHO membranes; […] [3H]-melatonin, pH […] MgCl2, […] °C, […] h. From the text: [3H]-melatonin competition, filtration on human melatonin MT1 receptor (MT1 CHO membranes)

SMILES strings stand for the structures.

T1 sequence (P48039 whole entry): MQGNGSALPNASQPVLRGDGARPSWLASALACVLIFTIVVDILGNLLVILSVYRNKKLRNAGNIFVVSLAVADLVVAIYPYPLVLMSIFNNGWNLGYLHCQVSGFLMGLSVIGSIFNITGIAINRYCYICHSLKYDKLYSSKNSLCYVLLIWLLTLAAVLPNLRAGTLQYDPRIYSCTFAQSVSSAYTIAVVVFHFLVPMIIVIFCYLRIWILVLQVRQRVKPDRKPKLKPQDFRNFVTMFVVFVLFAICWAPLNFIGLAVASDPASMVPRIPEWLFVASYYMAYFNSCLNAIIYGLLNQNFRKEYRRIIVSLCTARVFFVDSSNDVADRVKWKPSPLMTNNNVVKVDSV
T2 sequence (P48039 whole entry): as above

In the case of `NCCc1c[nH]c2ccc(O)cc12` [5HT], the Ki in test [1] (read-out: MT1 purified / pKi ± SEM (converted)) and in test [2] (read-out: MT1 CHO membranes / pKi ± SEM (converted)) was above 10 µM each time.
`COc1ccc(CCN(C)CCCC(C#N)(c2cc(OC)c(OC)c(OC)c2)C(C)C)cc1OC` (centres unmarked) [D600]: the “MT1 purified / pKi ± SEM” value in test [1] was 7.25±0.06 pKi (-log M). Moreover, the “MT1 CHO membranes / pKi ± SEM” value in test [2] is listed as 7.76±0.15 pKi (-log M).
As to `COc1ccc2ncn(CCNC(C)=O)c2c1` [S 21278], the “MT1 purified / pKi ± SEM” value in test [1] is 7.02±0.14 pKi (-log M). The “MT1 CHO membranes / pKi ± SEM” value in test [2] is reported as 7.71±0.14 pKi (-log M).
The like results for `COc1ccc2[nH]c(-c3cccc4ccccc34)c(CCNC(=O)CI)c2n1` [S 70254] were, in that order, 8.51±0.12 pKi (-log M) and 7.32±0.31 pKi (-log M).
